Literature values, collected in patent US11081240B2, “Methods for treatment of hypertension with an angiotensin II receptor blocker pharmaceutical composition” (AstraZeneca UK Limited, priority 2018, dated 2021).

Legend:
[1] = treatment of hypertension; at least 5 double-blind, placebo-controlled, randomized studies
[2] = co-administration of a potassium supplement with a single oral dose
[3] = administered with a lithium medication

SMILES: CCOc1nc2cccc(C(=O)OCc3oc(=O)oc3C)c2n1Cc1ccc(-c2ccccc2-c2noc(=O)[nH]2)cc1 [azilsartan medoxomil]
- efficacy to lower blood pressure [1]: has been demonstrated
- effect of a potassium supplement on the pharmacokinetics of the drug [2]: no significant effect
- serum lithium concentrations / lithium toxicity on co-administration [3]: increases in the serum lithium concentrations and/or lithium toxicity have been observed
